Results: patent US20230346670A1, “Prebiotic Oral Care Compositions and Methods” (Colgate-Palmolive Company, priority 2020, published 2023)
“And” between values parts separate entries of the source, which are not always exact repeats. Identical values can stand only once.

Columns and labels:
Type in all cases: cell-based
[1] = system: P. gingivalis; experiment: Multi-species biofilm composition, absolute abundance (Geq/mL); conditions: repeated rinsing
Summary of the method: (§1)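 CAD-HA disks, Amsterdam Active Adhesion model; biofilms established 24 h (37° C., 170 rpm, microaerophilic: 6% O2, 7% CO2, 7% H2, 80% N2). Then rinsed 3×/day, 3 min (RT, 250 rpm), 3 days, with substrate at 1 M; PBS (pH 5.7) without substrate as control. Values mean ± SD (n = 3) log(Geq/mL).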

[2] = system: P. intermedia; experiment: as above; conditions: repeated rinsing
Summary of the method: as §1

[3] = system: S. gordonii; experiment: as above; conditions: repeated rinsing
Summary of the method: as §1

[4] = system: S. oralis; experiment: as above; conditions: repeated rinsing
Summary of the method: as §1

[5] = system: A. actinomycetemcomitans; experiment: as above; conditions: repeated rinsing
[6] = system: S. sobrinus; experiment: as above; conditions: repeated rinsing
Summary of the method: as §1

[7] = system: S. mitis; experiment: as above; conditions: repeated rinsing
[8] = system: A. naeslundii; experiment: as above; conditions: repeated rinsing
Summary of the method: as §1

[9] = system: F. nucleatum virulence genes; experiment: Virulence gene expression in multi-species biofilm (SYBR RT-qPCR); conditions: for fold change in ABC transp. perm. (ABC transporter permease) expression, geometric mean (95% C.I.) / fold change in EF-G expression, geometric mean (95% C.I.) / fold change in but. -coA transf. (butyrate-acetoacetate CoA-transferase) expression, geometric mean (95% C.I.) / fold change in hemin receptor expression, geometric mean (95% C.I.) / fold change in hemolysin expression, geometric mean (95% C.I.) / fold change in ompA expression, geometric mean (95% C.I.) / fold change in transposase expression, geometric mean (95% C.I.): relative to control = 1, 2^-ΔΔCt, n = 3
Summary of the method: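 Multi-species biofilms on CAD-HA disks (Amsterdam Active Adhesion model) established 24 h at 37° C. under microaerophilic conditions, then rinsed 3 min three times daily for 3 days with substrate (1 M or 1% (w/v) in PBS); PBS pH 5.7 control. 33 virulence genes from 4 periodontal pathogens quantified by SYBR RT-qPCR, housekeeping-normalized; fold change by 2^-ΔΔCt, geometric mean (n = 3).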

[10] = system: multi-species biofilm (beneficial/commensal species, periodontal pathogens, cariogenic pathogens); experiment: Multi-species biofilm composition, relative proportions and group changes
Summary of the method: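 Multi-species biofilms grown 24 h on calcium-deficient hydroxyapatite disks in the Amsterdam Active Adhesion model. Then rinsed 3 times daily for 3 min (RT, 250 rpm) over 3 days with 1 M NADG, α-D-lactose, D-(+)-trehalose or D-(+)-raffinose; PBS pH 5.7 without substrate as control. Species abundance given as mean ± SD (n = 3) log genome equivalents per mL.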

[11] = system: S. sanguinis; experiment: Multi-species biofilm composition, absolute abundance (Geq/mL); conditions: repeated rinsing
Summary of the method: as §1

[12] = system: V. parvula; experiment: as above; conditions: repeated rinsing
[13] = system: S. mutans; experiment: as above; conditions: repeated rinsing
[14] = system: A. viscosus; experiment: as above; conditions: repeated rinsing
[15] = system: S. salivarius; experiment: as above; conditions: repeated rinsing
[16] = system: F. nucleatum; experiment: as above; conditions: repeated rinsing
Summary of the method: as §1

[17] = Table 3, separate experiments, concentration not given

For CC(=O)N[C@H]1C(O)O[C@H](CO)[C@@H](O)[C@@H]1O (stereo partly drawn) [NADG, N-acetyl-D-glucosamine], the “absolute abundance of P. gingivalis (Pg), mean ± SD log (Geq/mL)” value ([1]; substrate 1% (w/v)) was 7.14 ± 0.28 log (Geq/mL), the “absolute abundance of P. gingivalis (Pg), mean ± SD log (Geq/mL)” value ([1]; substrate 1 M in PBS, n = 3) was 4.43 ± 0.14^∗ log (Geq/mL) and the “absolute abundance of P. intermedia (Pi), mean ± SD log (Geq/mL)” value ([2]; substrate 1% (w/v)) was 8.17 ± 0.22 log (Geq/mL). For the same compound, the “absolute abundance of P. intermedia (Pi), mean ± SD log (Geq/mL)” value ([2]; substrate 1 M in PBS, n = 3) was 4.09 ± 0.16^∗ log (Geq/mL), the “absolute abundance of S. gordonii, mean ± SD log (Geq/mL)” value ([3]; substrate 1% (w/v)) was 8.33 ± 0.06 log (Geq/mL) and the “absolute abundance of S. gordonii, mean ± SD log (Geq/mL)” value ([3]; substrate 1 M in PBS, n = 3) was 9.80 ± 0.22^∗ log (Geq/mL). For the same compound, the “absolute abundance of S. oralis, mean ± SD log (Geq/mL)” value ([4]; substrate 1% (w/v)) was 7.11 ± 0.14 log (Geq/mL), the “absolute abundance of S. oralis, mean ± SD log (Geq/mL)” value ([4]; substrate 1 M in PBS, n = 3) was 7.96 ± 0.59 log (Geq/mL) and the “absolute abundance of A. actinomycetemcomitans (Aa), mean ± SD log (Geq/mL)” value ([5]; substrate 1% (w/v)) was 9.11 ± 0.2 log (Geq/mL). The “absolute abundance of A. actinomycetemcomitans (Aa), mean ± SD log (Geq/mL)” value ([5]; substrate 1 M in PBS, n = 3) was 8.15 ± 0.21^∗ log (Geq/mL), the “absolute abundance of S. sobrinus, mean ± SD log (Geq/mL)” value ([6]; substrate 1% (w/v)) was 4.87 ± 0.22 log (Geq/mL) and the “absolute abundance of S. sobrinus, mean ± SD log (Geq/mL)” value ([6]; substrate 1 M in PBS, n = 3) was 3.46 ± 0.19^∗ log (Geq/mL). For the same compound, the “absolute abundance of S. mitis, mean ± SD log (Geq/mL)” value ([7]; substrate 1% (w/v)) was 2.65 ± 0.00 log (Geq/mL), the “absolute abundance of S. mitis, mean ± SD log (Geq/mL)” value ([7]; substrate 1 M in PBS, n = 3) was 3.38 ± 1.04 log (Geq/mL) and the “absolute abundance of A. naeslundii (An), mean ± SD log (Geq/mL)” value ([8]; substrate 1% (w/v)) was 7.71 ± 0.12 log (Geq/mL). For the same compound, the “absolute abundance of A. naeslundii (An), mean ± SD log (Geq/mL)” value ([8]; substrate 1 M in PBS, n = 3) was 5.41 ± 0.31^∗ log (Geq/mL), the “fold change in ABC transp. perm. (ABC transporter permease) expression, geometric mean (95% C.I.)” value ([9]; substrate 1% (w/v)) was 0.33 (0.12-0.87)^∗ fold and the “fold change in EF-G expression, geometric mean (95% C.I.)” value ([9]; substrate 1% (w/v)) was 0.10 (0.02-0.45)^∗ fold. The “fold change in but. -coA transf. (butyrate-acetoacetate CoA-transferase) expression, geometric mean (95% C.I.)” value ([9]; substrate 1% (w/v)) was 0.21 (0.11-0.39)^∗ fold, the “fold change in hemin receptor expression, geometric mean (95% C.I.)” value ([9]; substrate 1% (w/v)) was 0.19 (0.02-1.67)^∗ fold and the “fold change in hemolysin expression, geometric mean (95% C.I.)” value ([9]; substrate 1% (w/v)) was 0.79 (0.30-2.04) fold. For the same compound, the “fold change in ompA expression, geometric mean (95% C.I.)” value ([9]; substrate 1% (w/v)) was 0.74 (0.18-2.98) fold, the “fold change in transposase expression, geometric mean (95% C.I.)” value ([9]; substrate 1% (w/v)) was 0.98 (0.18-5.39) fold and the “upregulation of F. nucleatum virulence gene expression, range over genes” value ([9]; substrate 1 M) was “more limited and only significant for 2 genes”. For the same compound, the “fold change in ABC transp. perm. (ABC transporter permease) expression, geometric mean (95% C.I.)” value ([9]; substrate 1 M) was 3.33 (2.53-4.39)^∗ fold, the “fold change in EF-G expression, geometric mean (95% C.I.)” value ([9]; substrate 1 M) was 1.45 (0.93-2.26) fold and the “fold change in but. -coA transf. (butyrate-acetoacetate CoA-transferase) expression, geometric mean (95% C.I.)” value ([9]; substrate 1 M) was 1.21 (0.99-1.49) fold. For the same compound, the “fold change in hemin receptor expression, geometric mean (95% C.I.)” value ([9]; substrate 1 M) was 3.26 (2.24-4.76)^∗ fold, the “fold change in hemolysin expression, geometric mean (95% C.I.)” value ([9]; substrate 1 M) was 1.90 (1.29-2.79) fold and the “fold change in ompA expression, geometric mean (95% C.I.)” value ([9]; substrate 1 M) was 1.33 (0.78-2.25) fold. The “fold change in transposase expression, geometric mean (95% C.I.)” value ([9]; substrate 1 M) was 1.27 (0.68-2.37) fold, the “relative proportion of beneficial or commensal species in biofilm” value ([10]; Table 1a, substrate 1 M) was 97.86±1.11 % (Geq/mL) and 97.86 (+/- 1.11)^∗ % (Geq/mL) and the “relative proportion of cariogenic pathogens in biofilm” value ([10]; Table 1a, substrate 1 M) was 0.68±0.33 % (Geq/mL) and 0.68 (+/- 0.33) % (Geq/mL). For the same compound, the “relative proportion of periodontal pathogens in biofilm” value ([10]; Table 1a, substrate 1 M) was 1.46±0.97 % (Geq/mL) and 1.46 (+/- 0.97)^∗ % (Geq/mL), the “relative proportion of beneficials/commensals in biofilm” value [10, 17] was 60.07 (+/- 8.25) % (Geq/mL) and the “relative proportion of cariogenic pathogens in biofilm” value [10, 17] was 0.66±0.27 % (Geq/mL) and 0.66 (+/- 0.27^∗) % (Geq/mL). For the same compound, the “relative proportion of periodontal pathogens in biofilm” value [10, 17] was 39.27 (+/- 7.98) % (Geq/mL), the “absolute abundance of S. sanguinis, mean ± SD log (Geq/mL)” value ([11]; substrate 1% (w/v)) was 8.40 ± 0.11 log (Geq/mL) and the “absolute abundance of S. sanguinis, mean ± SD log (Geq/mL)” value ([11]; substrate 1 M in PBS, n = 3) was 6.43 ± 0.94 log (Geq/mL). The “absolute abundance of V. parvula (VP), mean ± SD log (Geq/mL)” value ([12]; substrate 1% (w/v)) was 9.77 ± 0.19 log (Geq/mL), the “absolute abundance of V. parvula (VP), mean ± SD log (Geq/mL)” value ([12]; substrate 1 M in PBS, n = 3) was 9.91 ± 0.19 log (Geq/mL) and the “absolute abundance of S. mutans, mean ± SD log (Geq/mL)” value ([13]; substrate 1% (w/v)) was 7.83 ± 0.23 log (Geq/mL). The “absolute abundance of S. mutans, mean ± SD log (Geq/mL)” value ([13]; substrate 1 M in PBS, n = 3) was 7.96 ± 0.10 log (Geq/mL), the “absolute abundance of A. viscosus (Av), mean ± SD log (Geq/mL)” value ([14]; substrate 1% (w/v)) was 7.83 ± 0.31 log (Geq/mL) and the “absolute abundance of A. viscosus (Av), mean ± SD log (Geq/mL)” value ([14]; substrate 1 M in PBS, n = 3) was 6.72 ± 0.22 log (Geq/mL). For the same compound, the “absolute abundance of S. salivarius, mean ± SD log (Geq/mL)” value ([15]; substrate 1% (w/v)) was 2.65 ± 0.00 log (Geq/mL), the “absolute abundance of S. salivarius, mean ± SD log (Geq/mL)” value ([15]; substrate 1 M in PBS, n = 3) was 6.40 ± 0.29^∗ log (Geq/mL) and the “absolute abundance of F. nucleatum (Fn), mean ± SD log (Geq/mL)” value ([16]; substrate 1% (w/v)) was 9.41 ± 0.19 log (Geq/mL). The “absolute abundance of F. nucleatum (Fn), mean ± SD log (Geq/mL)” value ([16]; substrate 1 M in PBS, n = 3) was 7.22 ± 0.28^∗ log (Geq/mL).
